Converted amounts (≈) assume the structure as drawn.
Key:
[1] = residual penicillin G in the udder of a treated dry cow over 30 days; format: in vivo; details: for Residual Procaine Penicillin G In The Udder: dosage of 500,000 u; for Residual Benzathine Penicillin G In The Udder: 500,000 units of the composition of Example 1
[2] = high concentration product, e.g. 1,000,000 units procaine penicillin G and 1,000 milligrams dihydrostreptomycin; in some cases; cited from earlier work
[3] = cited from earlier work

| SMILES | dissipation of procaine penicillin ([1]; after the 8th day) | initial amount of procaine penicillin remaining, compared with benzathine penicillin G ([1]; at the 8th day) | amount of procaine penicillin remaining relative to remaining benzathine penicillin G ([1]; by the tenth day) | Residual Procaine Penicillin G In The Udder ([1]; day 8 past treatment) [u/ml.] | Residual Procaine Penicillin G In The Udder ([1]; day 10 past treatment) [u/ml.] | Residual Procaine Penicillin G In The Udder ([1]; day 12 past treatment) | Residual Procaine Penicillin G In The Udder ([1]; day 16 past treatment, not detectable) | Residual Procaine Penicillin G In The Udder ([1]; day 23 past treatment, not detectable) | Residual Procaine Penicillin G In The Udder ([1]; day 30 past treatment, not detectable) | desired residual effects remain in the udder of a treated cow [2] | solubility (in words) ([3]; compared with limited solubility penicillin) | Residual Benzathine Penicillin G In The Udder ([1]; day 8 past treatment) [u/ml.] | Residual Benzathine Penicillin G In The Udder ([1]; day 10 past treatment) [u/ml.] | Residual Benzathine Penicillin G In The Udder ([1]; day 12 past treatment) [u/ml.] | Residual Benzathine Penicillin G In The Udder ([1]; day 16 past treatment) [u/ml.] | Residual Benzathine Penicillin G In The Udder ([1]; day 23 past treatment) [u/ml.] | Residual Benzathine Penicillin G In The Udder ([1]; day 30 past treatment) [u/ml.] | amount remaining for effectively treating mastitis, compared with procaine penicillin ([1]; over the extended 30 day treatment) | solubility in water ([3]; water) [µg/mL] |
| --- | --- | --- | --- | --- | --- | --- | --- | --- | --- | --- | --- | --- | --- | --- | --- | --- | --- | --- | --- |
| CC1(C)S[C@@H]2[C@H](NC(=O)Cc3ccccc3)C(=O)N2[C@H]1C(=O)O [Procaine Penicillin G] | rapidly dissipated | higher | less than half | 7.68 | 1.56 | .21 u/ml. | less than 0.01 u/ml. | less than 0.01 u/ml. | less than 0.01 u/ml. | only a few days | greater solubility |  |  |  |  |  |  |  |  |
| CC1(C)S[C@@H]2[C@H](NC(=O)Cc3ccccc3)C(=O)N2[C@H]1C(=O)O [Benzathine Penicillin G, N, N dibenzyl ethylene diamine di benzyl penicillinate] |  |  |  |  |  |  |  |  |  |  |  | 5.37 | 3.67 | 4 | 3.57 | 2.2 | 0.11 | substantially greater | 500 (≈ 1500 µM) |
